# In patent publication US12643866B2, “Small molecule compound serving as JAK kinase inhibitor and use thereof” (TECHNODERMA MEDICINES, INC., priority 2020, dated 2026):
# How the values were obtained:
# Assay type in all cases: biochemical
# JAK2 = JAK2 (Homo sapiens, UniProt O60674); experiment: Detection of enzyme activity inhibition of JAK kinases (ULight-JAK substrate, Eu-labeled antibody): JAK2; conditions: JAK2 1 nM, ATP 10 μM, substrate 50 nM, 1 hour reaction at room temperature; read-out: JAK2 half-maximum inhibitory concentration (IC50)
# Protocol: (§1) Test Example 1: Detection of Enzyme Activity Inhibition of Small Molecule Inhibitors of JAK Kinases
# (§2) Kinase reaction buffer: The kinase reaction buffer was prepared with the following components: 50 mM HEPES, pH 7.5, 1 mM EGTA, 10 mM MgCl2, 2 mM DTT, and 0.01% Tween20. 1× test buffer: A test buffer was prepared, and the 10× test buffer was diluted with deionized water (deionized water: test buffer=9:1) to obtain the 1× test buffer. 4× kinase solution: JAK kinase was diluted with a kinase reaction buffer to a final concentration of 4× (JAK1:80 nM, JAK2/JAK3/Tyk2:4 nM). 4× substrate solution: ULight™-JAK (Tyr1023) substrate was diluted with the kinase reaction buffer to 200 nM (final concentration: 50 nM). 4×ATP solution: ATP was diluted with the kinase reaction buffer to a final concentration of 4× (JAK1:160 μM, JAK2/JAK3/Tyk2: 40 μM). 4× test compound solution: The compounds to be tested were dissolved in DMSO to prepare 10 mM stock solutions, which were diluted to have the desired concentrations through 3-fold gradient dilution, 10 concentrations were set for each compound, and final concentrations of the test compounds ranged from 10 μM to 0.5 nM. 4× enzyme reaction termination solution: EDTA was dissolved in a 1× test buffer to 40 mM (final concentration of EDTA: 10 mM). 4× test antibody solution: Eu-labeled test antibodies (anti-phosphotyrosine (PT66)) were diluted with 1× test buffer to 8 nM (final concentration of the antibodies: 2 nM).
# (§3) 2.5 μL of the 4× kinase solution and 2.5 μL of each of the 4× test compound solutions having different concentrations were added into a 384-well microwell plate sequentially, with 2 duplicate wells set for each concentration, and an enzyme solution blank control group and a negative control group (DMSO group) were also provided. The 384-well plate was oscillated to mix the enzyme and the compound uniformly, centrifuged at 1000 rpm for 1 minute, and incubated at room temperature for 60 minutes. 2.5 μL of the 4× substrate solution was added into the 384-well plate, and centrifuged at 1000 rpm for 1 minute. 2.5 μL of the 4×ATP solution was added into the 384-well plate, and centrifuged at 1000 rpm for 1 minute to start the enzyme reaction. JAK1 reacted at room temperature for 2 hours, and JAK2/JAK3/Tyk2 reacted at room temperature for 1 hour. The final concentration of each component in the JAK1 reaction was: JAK1:20 nM; substrate: 50 nM; and ATP: 40 μM. The final concentrations of the test compounds ranged from 10 μM to 0.5 nM. The final concentration of each component in the JAK2/JAK3/Tyk2 reaction was: JAK2: 1 nM; substrate: 50 nM; and ATP: 10 μM. The final concentrations of the test compounds ranged from 10 μM to 0.5 nM. After the enzyme reaction ended, 5 μL of the 4× enzyme reaction termination solution was added into each well of the 384-well plate, centrifuged at 1000 rpm for 1 minute, and incubated at room temperature for 5 minutes. 5 μL of the 4× test antibody solution (final concentration of the test antibodies was 2 nM) was added into each well of the 384-well plate, centrifuged at 1000 rpm for 1 minute, and incubated at room temperature for 1 hour. After incubation of the antibodies, a signal value of each well was measured with Envision plate reader.
# (§4) Assuming that an inhibition rate of the enzyme solution blank control group was 100% and an inhibition rate of the negative control group (DMSO group) was 0%, an inhibition rate corresponding to each concentration was calculated. Nonlinear regression analysis was performed on the concentration logarithm values and corresponding percentage inhibition rates of the test compounds in GraphPad Prism software to obtain the half-maximum inhibitory concentrations (IC50) of the test compounds.
# JAK1 = JAK1 (Homo sapiens, UniProt P23458); experiment: Detection of enzyme activity inhibition of JAK kinases (ULight-JAK substrate, Eu-labeled antibody): JAK1; conditions: JAK1 20 nM, ATP 40 μM, substrate 50 nM, 2 hours reaction at room temperature; read-out: JAK1 half-maximum inhibitory concentration (IC50)
# Protocol: as §1, §2, §3, §4
# Tyk2 = Tyk2 (Homo sapiens, UniProt P29597); experiment: Detection of enzyme activity inhibition of JAK kinases (ULight-JAK substrate, Eu-labeled antibody): Tyk2; conditions: ATP 10 μM, substrate 50 nM, 1 hour reaction at room temperature; read-out: Tyk2 half-maximum inhibitory concentration (IC50)
# Protocol: as §1, §2, §3, §4
# JAK3 = target: T1, JAK3 (Homo sapiens, UniProt P52333); experiment: Detection of enzyme activity inhibition of JAK kinases (ULight-JAK substrate, Eu-labeled antibody): JAK3; conditions: ATP 10 μM, substrate 50 nM, 1 hour reaction at room temperature; read-out: JAK3 half-maximum inhibitory concentration (IC50)
# T1 sequence (P52333 1-1124): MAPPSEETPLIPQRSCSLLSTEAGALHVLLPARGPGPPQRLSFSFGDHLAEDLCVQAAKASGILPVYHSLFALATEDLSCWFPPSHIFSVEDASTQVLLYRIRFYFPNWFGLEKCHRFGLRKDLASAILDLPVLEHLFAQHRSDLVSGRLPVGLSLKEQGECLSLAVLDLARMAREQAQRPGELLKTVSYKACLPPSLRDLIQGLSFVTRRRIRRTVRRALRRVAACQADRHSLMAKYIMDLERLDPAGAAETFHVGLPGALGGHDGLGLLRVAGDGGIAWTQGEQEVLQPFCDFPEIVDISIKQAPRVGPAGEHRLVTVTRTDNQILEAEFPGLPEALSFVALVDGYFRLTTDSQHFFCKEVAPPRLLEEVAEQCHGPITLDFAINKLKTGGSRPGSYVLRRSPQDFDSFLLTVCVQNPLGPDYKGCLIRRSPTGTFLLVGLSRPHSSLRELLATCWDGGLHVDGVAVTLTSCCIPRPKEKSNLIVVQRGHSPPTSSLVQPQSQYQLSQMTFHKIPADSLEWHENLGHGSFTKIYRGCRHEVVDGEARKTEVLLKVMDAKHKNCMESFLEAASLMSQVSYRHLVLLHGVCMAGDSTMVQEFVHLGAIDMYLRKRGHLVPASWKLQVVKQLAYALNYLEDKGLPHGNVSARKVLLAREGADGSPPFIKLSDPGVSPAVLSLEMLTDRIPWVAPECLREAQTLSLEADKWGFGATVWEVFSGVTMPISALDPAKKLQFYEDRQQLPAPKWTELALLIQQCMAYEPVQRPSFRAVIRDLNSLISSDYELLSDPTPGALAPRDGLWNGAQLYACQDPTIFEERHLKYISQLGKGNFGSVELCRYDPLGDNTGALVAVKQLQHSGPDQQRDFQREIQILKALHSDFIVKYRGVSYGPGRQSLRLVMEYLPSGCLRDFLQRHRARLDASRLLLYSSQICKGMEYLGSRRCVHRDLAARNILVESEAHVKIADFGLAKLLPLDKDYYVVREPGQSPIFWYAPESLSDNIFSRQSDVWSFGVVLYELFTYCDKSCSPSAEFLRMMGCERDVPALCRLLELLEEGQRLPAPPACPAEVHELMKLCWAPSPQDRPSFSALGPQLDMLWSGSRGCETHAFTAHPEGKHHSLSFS
# Protocol: as §1, §2, §3, §4
# Chain of Tyk2 (P29597 whole entry): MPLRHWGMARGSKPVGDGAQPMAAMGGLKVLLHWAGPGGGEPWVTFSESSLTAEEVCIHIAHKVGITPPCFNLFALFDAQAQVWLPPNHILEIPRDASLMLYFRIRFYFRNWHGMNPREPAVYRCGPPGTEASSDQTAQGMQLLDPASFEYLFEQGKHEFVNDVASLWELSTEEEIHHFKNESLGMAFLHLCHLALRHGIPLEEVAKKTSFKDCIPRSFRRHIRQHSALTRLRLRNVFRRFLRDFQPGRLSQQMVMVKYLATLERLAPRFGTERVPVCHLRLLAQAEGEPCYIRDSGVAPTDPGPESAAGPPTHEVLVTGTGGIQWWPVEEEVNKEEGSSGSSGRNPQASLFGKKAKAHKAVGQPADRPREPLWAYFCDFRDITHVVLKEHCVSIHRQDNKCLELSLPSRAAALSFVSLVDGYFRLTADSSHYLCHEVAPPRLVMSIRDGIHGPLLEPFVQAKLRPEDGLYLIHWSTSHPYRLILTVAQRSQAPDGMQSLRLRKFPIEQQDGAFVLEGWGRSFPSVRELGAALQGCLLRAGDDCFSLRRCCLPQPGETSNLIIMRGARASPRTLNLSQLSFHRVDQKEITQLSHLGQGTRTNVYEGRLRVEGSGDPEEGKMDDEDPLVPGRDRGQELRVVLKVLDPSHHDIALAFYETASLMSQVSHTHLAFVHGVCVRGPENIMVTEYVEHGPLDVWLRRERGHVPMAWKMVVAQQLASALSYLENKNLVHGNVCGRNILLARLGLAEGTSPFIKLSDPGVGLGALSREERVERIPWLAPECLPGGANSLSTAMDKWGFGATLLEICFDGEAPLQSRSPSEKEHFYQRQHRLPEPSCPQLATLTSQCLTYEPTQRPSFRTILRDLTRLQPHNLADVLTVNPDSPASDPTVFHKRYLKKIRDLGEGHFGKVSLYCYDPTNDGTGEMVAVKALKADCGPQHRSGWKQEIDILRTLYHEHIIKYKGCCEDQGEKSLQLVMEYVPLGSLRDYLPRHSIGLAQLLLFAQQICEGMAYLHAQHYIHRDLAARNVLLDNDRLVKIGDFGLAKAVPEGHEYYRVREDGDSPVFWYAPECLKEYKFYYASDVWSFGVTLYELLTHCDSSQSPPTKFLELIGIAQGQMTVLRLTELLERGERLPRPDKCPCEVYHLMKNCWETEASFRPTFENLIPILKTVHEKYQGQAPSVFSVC
# Chain of JAK2 (O60674 whole entry): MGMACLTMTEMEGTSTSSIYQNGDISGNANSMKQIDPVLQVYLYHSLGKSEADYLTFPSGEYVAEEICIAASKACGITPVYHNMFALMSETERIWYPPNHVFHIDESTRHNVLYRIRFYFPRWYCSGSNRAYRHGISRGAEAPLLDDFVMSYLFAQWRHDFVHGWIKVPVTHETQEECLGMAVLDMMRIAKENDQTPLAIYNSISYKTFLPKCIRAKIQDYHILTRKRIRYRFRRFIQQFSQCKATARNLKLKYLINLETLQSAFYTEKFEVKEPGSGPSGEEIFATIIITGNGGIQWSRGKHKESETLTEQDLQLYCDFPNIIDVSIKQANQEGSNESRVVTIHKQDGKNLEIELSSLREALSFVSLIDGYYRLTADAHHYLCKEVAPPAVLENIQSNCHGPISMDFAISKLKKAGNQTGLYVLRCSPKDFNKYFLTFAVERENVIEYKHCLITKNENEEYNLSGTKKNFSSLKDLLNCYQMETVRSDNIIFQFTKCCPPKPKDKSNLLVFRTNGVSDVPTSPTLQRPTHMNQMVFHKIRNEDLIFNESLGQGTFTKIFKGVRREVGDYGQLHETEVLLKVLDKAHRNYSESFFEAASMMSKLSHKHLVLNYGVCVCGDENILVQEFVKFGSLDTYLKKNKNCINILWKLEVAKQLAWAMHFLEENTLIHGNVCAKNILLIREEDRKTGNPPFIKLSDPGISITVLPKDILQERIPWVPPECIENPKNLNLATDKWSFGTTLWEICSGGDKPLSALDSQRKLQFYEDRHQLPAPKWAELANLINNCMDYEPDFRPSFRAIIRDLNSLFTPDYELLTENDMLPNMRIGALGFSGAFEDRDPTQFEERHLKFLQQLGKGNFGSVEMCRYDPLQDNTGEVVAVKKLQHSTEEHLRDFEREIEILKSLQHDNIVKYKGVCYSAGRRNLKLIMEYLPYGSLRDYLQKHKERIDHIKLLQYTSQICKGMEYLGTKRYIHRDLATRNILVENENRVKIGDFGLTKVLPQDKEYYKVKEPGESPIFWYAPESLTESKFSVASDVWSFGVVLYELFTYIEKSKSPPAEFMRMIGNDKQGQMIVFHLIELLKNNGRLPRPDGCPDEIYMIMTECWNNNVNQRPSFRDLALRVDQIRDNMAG
# Chain of JAK1 (P23458 whole entry): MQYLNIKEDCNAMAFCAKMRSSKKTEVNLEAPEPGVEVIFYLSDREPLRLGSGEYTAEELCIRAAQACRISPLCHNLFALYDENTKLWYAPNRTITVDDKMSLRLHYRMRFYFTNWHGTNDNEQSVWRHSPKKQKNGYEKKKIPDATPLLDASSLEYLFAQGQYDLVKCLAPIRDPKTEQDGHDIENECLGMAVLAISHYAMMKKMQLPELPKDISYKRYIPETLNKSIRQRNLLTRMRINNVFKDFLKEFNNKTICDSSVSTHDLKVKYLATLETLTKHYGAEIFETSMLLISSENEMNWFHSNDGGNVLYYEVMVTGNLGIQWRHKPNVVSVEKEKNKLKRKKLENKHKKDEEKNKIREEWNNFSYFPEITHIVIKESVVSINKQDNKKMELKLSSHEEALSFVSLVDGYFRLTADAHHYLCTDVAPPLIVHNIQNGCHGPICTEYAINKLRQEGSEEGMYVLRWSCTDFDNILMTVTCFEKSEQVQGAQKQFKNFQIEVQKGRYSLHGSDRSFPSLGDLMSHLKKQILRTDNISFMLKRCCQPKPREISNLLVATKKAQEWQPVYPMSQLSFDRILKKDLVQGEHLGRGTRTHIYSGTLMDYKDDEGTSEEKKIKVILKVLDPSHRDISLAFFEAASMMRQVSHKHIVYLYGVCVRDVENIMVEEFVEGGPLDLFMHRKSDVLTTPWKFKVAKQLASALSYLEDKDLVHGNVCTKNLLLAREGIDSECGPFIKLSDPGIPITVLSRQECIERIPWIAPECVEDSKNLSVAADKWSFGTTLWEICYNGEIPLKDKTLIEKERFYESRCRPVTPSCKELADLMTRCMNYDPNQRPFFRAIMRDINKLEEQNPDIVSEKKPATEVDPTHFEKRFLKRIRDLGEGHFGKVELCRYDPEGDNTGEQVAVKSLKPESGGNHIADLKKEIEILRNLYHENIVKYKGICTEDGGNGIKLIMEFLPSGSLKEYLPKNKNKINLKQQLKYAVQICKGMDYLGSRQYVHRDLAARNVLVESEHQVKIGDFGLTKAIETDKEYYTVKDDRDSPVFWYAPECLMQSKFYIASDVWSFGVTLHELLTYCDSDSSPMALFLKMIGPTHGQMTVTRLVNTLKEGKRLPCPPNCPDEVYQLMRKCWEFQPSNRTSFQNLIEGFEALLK
Compound,IC50 (JAK2) [nM],IC50 (JAK1) [nM],IC50 (Tyk2) [nM],IC50 (JAK3) [nM]
"CCNC(=O)c1ccc(Nc2nccc(-c3ccc(NC(=O)[C@@H]4CC4(F)F)nc3)n2)cc1 [TDM-180971, (S)-4((4-(6-(2,2-difluorocyclopropane-1-formamido)pyridin-3-yl)pyrimidin-2-yl)amino)-N-ethyl benzamide]",7,6,5,219
CCNC(=O)c1ccc(Nc2nccc(-c3ccc(NC(=O)[C@@H]4CC4(F)F)cc3)n2)cc1 [TDM-180972],3,4,5,117
Cc1cc(Nc2nccc(-c3ccc(NC(=O)[C@@H]4CC4(F)F)cc3)n2)cnc1C(N)=O [TDM-180974],7,7,8,346
"CCNC(=O)c1ccc(Nc2nccc(-c3ccc(NC(=O)[C@@H]4CC4(F)F)cc3)n2)cc1C [TDM-180977, (S)-4-(4-(4-(4-(2,2-difluorocyclopropane-1-carboxamido)phenyl)pyrimidin-2-yl)amino)-N-ethyl-2-methylbenzamide]",,,,57
"CNC(=O)c1ncc(Nc2nccc(-c3ccc(NC(=O)[C@@H]4CC4(F)F)nc3)n2)cc1C [TDM-180979, (S)-5((4-(6-(2,2-difluorocyclopropane-1-carboxamido)pyridin-3-yl)pyrimidin-2-yl)amino)-N,3-dimethylpyridinolineamide]",33,25,17,931
"Cc1cc(Nc2nccc(-c3ccc(NC(=O)[C@@H]4CC4(F)F)nc3)n2)cnc1C(N)=O [TDM-180980, (S)-5-((4-(6-(2,2-difluorocyclopropane-1-carboxamido)pyridin-3-yl)pyrimidin-2-yl)amino)-3-methyl pyridinolineamide]",30,28,18,> 5000
CNC(=O)c1ncc(Nc2nccc(-c3ccc(NC(=O)[C@@H]4CC4(F)F)cc3)n2)cc1C [TDM-180981],8,8,8,183
"CCNC(=O)c1ccc(Nc2nccc(-c3ccc(NC(=O)[C@@H]4CC4(F)F)nc3)n2)cc1C [TDM-180984, (S)-4-((4-(6-(2,2-difluorocyclopropane-1-carboxamido)pyridin-3-yl)pyrimidin-2-yl)amino)-N-ethyl-2-methylbenzamide]",9,8,5,105
CC(CO)c1ccc(Nc2nccc(-c3ccc(NC(=O)[C@@H]4CC4(F)F)nc3)n2)cn1 (stereo partly shown) [TDM-180987],22,25,17,310
CC(CO)c1ccc(Nc2nccc(-c3ccc(NC(=O)[C@@H]4CC4(F)F)cc3)n2)cn1 (stereo partly shown) [TDM-180989],13,11,14,177
